Data from patent US6921806B2, “Plant growth factor” (Kyowa Hakko Kogyo Co. Ltd., priority 1995, dated 2005).
[ ]: non-standard residue; d: D form. sY = N[C@@H](Cc1ccc(OS(=O)(=O)O)cc1)C(=O)O

System: single asparagus cells
Experiment: bioassay of the plant growth factors: colony formation frequency of incubated single asparagus cells
Assay type: cell-based, Asparagus officinalis L.
Details: peptide made by synthesizer and enzymatic sulfation
Procedure: Single asparagus cells, as obtained according to the method of Example 4, were implanted in the media, as prepared by the method of Example 5, and incubated with the present plant growth factor in the media. The influence of the plant growth factor on the proliferation of the incubated asparagus cells was determined by measuring the change in the colony formation frequency in each medium. Cells were incubated in a 24-well microtiter plate (IWAKI 3820-024). To each well of the microtiter were added 250 μl of a suspension of single asparagus cells as prepared at a cell density of 2-fold the intended final cell density, 125 μl of the liquid medium having a concentration of 4-fold the intended final concentration, and 125 μl of sterilized distilled water or 125 μl of CM as obtained in Example 6, sterilized through filtration (ADVANTEC DISMIC-13 cp, 0.20 μm) and diluted just before use, and fully stirred. Then, the plates were sealed with vinyl tape in order to prevent vaporization, in which the cells were incubated in the dark at 28° C. with shaking at 120 rpm (TAITEC BR-300L). […] On the basis of the data thus obtained for 3 wells or more, the colony formation frequency (C) and the cell viability (L) were calculated according to the following equations. […] The colony formation frequency for the asparagus cells at each CM concentration was determined. […]

H-[sY]I[sY]TQ-OH [compound (I-1)]
biological activity of the synthesized peptide compared with isolated compound (I-1): exhibited the biological activity at the same concentrations
